Reference: US9260439B2, “Dihydropyrrolopyrimidine derivatives” (PFIZER INC., priority 2014, dated 2016)

Biological target: truncated PI3Kα (p110α/iSH2 p85α) (Homo sapiens (Human), UniProt P42336)
Assay: PI3KA_Act fluorescence polarization kinase assay (Ki)
Type: biochemical
Conditions: 1 mM ATP
In short: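 Ki values result from fitting fluorescence polarization signals to the Morrison equation for tight-binding competitive inhibitors. The detector was GST-Grp1 PH domain with TAMRA-PIP3, read after a 30 min room-temperature reaction of 0.5 nM truncated PI3Kα and 30 μM PIP2 at pH 7.4 in HEPES/NaCl/MgCl2/DTT/CHAPS buffer. Compounds were tested as 12-point 3-fold dilutions from 3 μM.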

truncated PI3Kα (p110α/iSH2 p85α), sequence (P42336 whole entry, the tested form may be a part): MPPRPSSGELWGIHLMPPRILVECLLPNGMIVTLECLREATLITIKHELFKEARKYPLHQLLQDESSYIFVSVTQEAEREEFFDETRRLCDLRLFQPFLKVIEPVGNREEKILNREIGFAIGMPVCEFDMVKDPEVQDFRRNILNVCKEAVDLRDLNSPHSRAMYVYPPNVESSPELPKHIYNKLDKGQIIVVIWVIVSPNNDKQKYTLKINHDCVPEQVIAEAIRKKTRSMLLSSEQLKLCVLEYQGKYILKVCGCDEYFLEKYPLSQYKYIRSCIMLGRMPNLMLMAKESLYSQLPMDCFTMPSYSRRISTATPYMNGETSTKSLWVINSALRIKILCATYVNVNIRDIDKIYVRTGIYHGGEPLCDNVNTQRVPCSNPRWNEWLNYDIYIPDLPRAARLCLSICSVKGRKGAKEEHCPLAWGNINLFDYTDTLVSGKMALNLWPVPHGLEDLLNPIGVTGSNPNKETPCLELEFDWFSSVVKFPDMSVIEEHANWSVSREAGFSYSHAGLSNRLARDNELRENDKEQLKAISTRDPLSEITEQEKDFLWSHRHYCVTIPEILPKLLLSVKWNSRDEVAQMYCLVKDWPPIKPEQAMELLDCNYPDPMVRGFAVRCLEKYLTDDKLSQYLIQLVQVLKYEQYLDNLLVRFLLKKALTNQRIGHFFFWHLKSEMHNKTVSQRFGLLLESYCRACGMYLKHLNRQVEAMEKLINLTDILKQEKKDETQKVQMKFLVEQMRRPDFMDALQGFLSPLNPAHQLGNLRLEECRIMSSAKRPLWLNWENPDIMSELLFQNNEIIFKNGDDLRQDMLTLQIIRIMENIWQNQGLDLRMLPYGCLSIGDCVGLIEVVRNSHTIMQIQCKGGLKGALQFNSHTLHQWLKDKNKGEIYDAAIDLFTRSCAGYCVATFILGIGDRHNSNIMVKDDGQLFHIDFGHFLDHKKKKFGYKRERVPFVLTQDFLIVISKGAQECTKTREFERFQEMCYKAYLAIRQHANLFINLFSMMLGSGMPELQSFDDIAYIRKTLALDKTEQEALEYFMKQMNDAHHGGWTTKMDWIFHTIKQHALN

| Compound | PI3KA_Act Ki |
| --- | --- |
| C[C@]1(N2CCc3c(-c4cnc(N)nc4)nc(N4CCOCC4)nc32)CCN(C(=O)C2(N)CCC2)C1 [Example 346, (1-aminocyclobutyl) {(3S)-3-[4-(2-aminopyrimidin-5-yl)-2-(morpholin-4-yl)-5,6-dihydro-7H-pyrrolo[2,3-d]pyrimidin-7-yl]-3-methylpyrrolidin-1-yl}methanone] | 0.125 nM |
| C[C@]1(N2CCc3c(-c4cnc(N)nc4)nc(N4CCOCC4)nc32)CCN(C(=O)[C@@H]2CCN2)C1.Cl [Example 347, {(3S)-3-[4-(2-aminopyrimidin-5-yl)-2-(morpholin-4-yl)-5,6-dihydro-7H-pyrrolo[2,3-d]pyrimidin-7-yl]-3-methylpyrrolidin-1-yl}[(2S)-azetidin-2-yl]methanone hydrochloride] | 0.075 nM |
| C[C@]1(N2CCc3c(-c4cnc(N)nc4)nc(N4CCOCC4)nc32)CCN(C(=O)C2CCN2)C1.Cl (stereo partly drawn) [Example 348, {(3S)-3-[4-(2-aminopyrimidin-5-yl)-2-(morpholin-4-yl)-5,6-dihydro-7H-pyrrolo[2,3-d]pyrimidin-7-yl]-3-methylpyrrolidin-1-yl}(azetidin-2-yl)methanone hydrochloride] | 0.066 nM |
| C[C@]1(N2CCc3c(-c4cnc(N)nc4)nc(N4CCOCC4)nc32)CCN(C(=O)C2CNC2)C1.Cl [Example 349, {(3S)-3-[4-(2-aminopyrimidin-5-yl)-2-(morpholin-4-yl)-5,6-dihydro-7H-pyrrolo[2,3-d]pyrimidin-7-yl]-3-methylpyrrolidin-1-yl}(azetidin-3-yl)methanone hydrochloride] | 0.026 nM |
| C[C@]1(N2CCc3c(-c4cnc(N)nc4)nc(N4CCOCC4)nc32)CCN(C(=O)[C@]2(C)CCN2)C1.Cl [Example 350, {(3S)-3-[4-(2-aminopyrimidin-5-yl)-2-(morpholin-4-yl)-5,6-dihydro-7H-pyrrolo[2,3-d]pyrimidin-7-yl]-3-methylpyrrolidin-1-yl}[(2S)-2-methylazetidin-2-yl]methanone hydrochloride] | 0.045 nM |
| C[C@]1(N2CCc3c(-c4cnc(N)nc4)nc(N4CCOCC4)nc32)CCN(C(=O)[C@@]2(C)CCN2)C1 [Example 351, {(3S)-3-[4-(2-aminopyrimidin-5-yl)-2-(morpholin-4-yl)-5,6-dihydro-7H-pyrrolo[2,3-d]pyrimidin-7-yl]-3-methylpyrrolidin-1-yl}[(2R)-2-methylazetidin-2-yl]methanone] | 0.059 nM |
| C[C@]1(N2CCc3c(-c4cnc(N)nc4)nc(N4CCOCC4)nc32)CCN(C(=O)C2(F)CNC2)C1.Cl [Example 352, {(3S)-3-[4-(2-aminopyrimidin-5-yl)-2-(morpholin-4-yl)-5,6-dihydro-7H-pyrrolo[2,3-d]pyrimidin-7-yl]-3-methylpyrrolidin-1-yl}(3-fluoroazetidin-3-yl)methanone hydrochloride] | <0.018 nM |
| CN1CC[C@@H]1C(=O)N1CC[C@](C)(N2CCc3c(-c4cnc(N)nc4)nc(N4CCOCC4)nc32)C1 [Example 353, {(3S)-3-[4-(2-aminopyrimidin-5-yl)-2-(morpholin-4-yl)-5,6-dihydro-7H-pyrrolo[2,3-d]pyrimidin-7-yl]-3-methylpyrrolidin-1-yl}[(2R)-1-methylazetidin-2-yl]methanone] | 0.078 nM |
| CN1CC[C@H]1C(=O)N1CC[C@](C)(N2CCc3c(-c4cnc(N)nc4)nc(N4CCOCC4)nc32)C1 [Example 354, {(3S)-3-[4-(2-aminopyrimidin-5-yl)-2-(morpholin-4-yl)-5,6-dihydro-7H-pyrrolo[2,3-d]pyrimidin-7-yl]-3-methylpyrrolidin-1-yl}[(2S)-1-methylazetidin-2-yl]methanone] | 0.049 nM |
| CN1CCC1(C)C(=O)N1CC[C@](C)(N2CCc3c(-c4cnc(N)nc4)nc(N4CCOCC4)nc32)C1 (stereo partly drawn) [Example 355, {(3S)-3-[4-(2-aminopyrimidin-5-yl)-2-(morpholin-4-yl)-5,6-dihydro-7H-pyrrolo[2,3-d]pyrimidin-7-yl]-3-methylpyrrolidin-1-yl}(1,2-dimethylazetidin-2-yl)methanone] | 0.102 nM |
| CN1CC(C(=O)N2CC[C@](C)(N3CCc4c(-c5cnc(N)nc5)nc(N5CCOCC5)nc43)C2)C1 [Example 356, {(3S)-3-[4-(2-aminopyrimidin-5-yl)-2-(morpholin-4-yl)-5,6-dihydro-7H-pyrrolo[2,3-d]pyrimidin-7-yl]-3-methylpyrrolidin-1-yl}(1-methylazetidin-3-yl)methanone] | 0.037 nM |
| CC(C)(C)OC(=O)N1CC[C@H]1C(=O)N1CC[C@@](C)(N2CCc3c(-c4cnc(N)nc4)nc(N4CCOCC4)nc32)C1 [Example 357, tert-butyl (2S)-2-({(3R)-3-[4-(2-aminopyrimidin-5-yl)-2-(morpholin-4-yl)-5,6-dihydro-7H-pyrrolo[2,3-d]pyrimidin-7-yl]-3-methylpyrrolidin-1-yl}carbonyl)azetidine-1-carboxylate] | 0.144 nM |
| CC(C)(C)OC(=O)N1CCC1C(=O)N1CC[C@](C)(N2CCc3c(-c4cnc(N)nc4)nc(N4CCOCC4)nc32)C1 (stereo partly drawn) [Example 358, tert-butyl 2-({(3S)-3-[4-(2-aminopyrimidin-5-yl)-2-(morpholin-4-yl)-5,6-dihydro-7H-pyrrolo[2,3-d]pyrimidin-7-yl]-3-methylpyrrolidin-1-yl}carbonyl)azetidine-1-carboxylate] | 0.171 nM |
| CC(C)(C)OC(=O)N1CC(F)(C(=O)N2CC[C@](C)(N3CCc4c(-c5cnc(N)nc5)nc(N5CCOCC5)nc43)C2)C1 [Example 359, tert-butyl 3-({(3S)-3-[4-(2-aminopyrimidin-5-yl)-2-(morpholin-4-yl)-5,6-dihydro-7H-pyrrolo[2,3-d]pyrimidin-7-yl]-3-methylpyrrolidin-1-yl}carbonyl)-3-fluoroazetidine-1-carboxylate] | 0.128 nM |
| C[C@]1(N2CCc3c(-c4cnc(N)nc4)nc(N4CCOCC4)nc32)CCN(C(=O)N2CCC2)C1 [Example 360, {(3S)-3-[4-(2-aminopyrimidin-5-yl)-2-(morpholin-4-yl)-5,6-dihydro-7H-pyrrolo[2,3-d]pyrimidin-7-yl]-3-methylpyrrolidin-1-yl}(azetidin-1-yl)methanone] | <0.018 nM |
| C[C@@]1(N2CCc3c(-c4cnc(N)nc4)nc(N4CCOCC4)nc32)CCN(C(=O)N2CCC2)C1 [Example 361, {(3R)-3-[4-(2-aminopyrimidin-5-yl)-2-(morpholin-4-yl)-5,6-dihydro-7H-pyrrolo[2,3-d]pyrimidin-7-yl]-3-methylpyrrolidin-1-yl}(azetidin-1-yl)methanone] | 0.078 nM |
| CC1(C)CN[C@@H]1C(=O)N1CC[C@](C)(N2CCc3c(-c4cnc(N)nc4)nc(N4CCOCC4)nc32)C1.Cl [Example 362, {(3S)-3-[4-(2-aminopyrimidin-5-yl)-2-(morpholin-4-yl)-5,6-dihydro-7H-pyrrolo[2,3-d]pyrimidin-7-yl]-3-methylpyrrolidin-1-yl}[(2S)-3,3-dimethylazetidin-2-yl]methanone hydrochloride] | 0.041 nM |
| C[C@]1(N2CCc3c(-c4cnc(N)nc4)nc(N4CCOCC4)nc32)CCN(C(=O)N2CC(C#N)C2)C1 [Example 363, 1-({(3S)-3-[4-(2-aminopyrimidin-5-yl)-2-(morpholin-4-yl)-5,6-dihydro-7H-pyrrolo[2,3-d]pyrimidin-7-yl]-3-methylpyrrolidin-1-yl}carbonyl)azetidine-3-carbonitrile] | 0.039 nM |
| C[C@@]1(N2CCc3c(-c4cnc(N)nc4)nc(N4CCOCC4)nc32)CCN(C(=O)N2CC(C#N)C2)C1 [Example 364, 1-({(3R)-3-[4-(2-aminopyrimidin-5-yl)-2-(morpholin-4-yl)-5,6-dihydro-7H-pyrrolo[2,3-d]pyrimidin-7-yl]-3-methylpyrrolidin-1-yl}carbonyl)azetidine-3-carbonitrile] | 0.262 nM |
| C[C@@]1(N2CCc3c(-c4cnc(N)nc4)nc(N4CCOCC4)nc32)CCN(C(=O)N2CC(O)C2)C1 [Example 365, {(3R)-3-[4-(2-aminopyrimidin-5-yl)-2-(morpholin-4-yl)-5,6-dihydro-7H-pyrrolo[2,3-d]pyrimidin-7-yl]-3-methylpyrrolidin-1-yl}(3-hydroxyazetidin-1-yl)methanone] | 0.063 nM |
| C[C@]1(N2CCc3c(-c4cnc(N)nc4)nc(N4CCOCC4)nc32)CCN(C(=O)N2CC(O)C2)C1 [Example 366, {(3S)-3-[4-(2-aminopyrimidin-5-yl)-2-(morpholin-4-yl)-5,6-dihydro-7H-pyrrolo[2,3-d]pyrimidin-7-yl]-3-methylpyrrolidin-1-yl}(3-hydroxyazetidin-1-yl)methanone] | 0.021 nM |
| COC1CN(C(=O)N2CC[C@](C)(N3CCc4c(-c5cnc(N)nc5)nc(N5CCOCC5)nc43)C2)C1 [Example 367, {(3S)-3-[4-(2-aminopyrimidin-5-yl)-2-(morpholin-4-yl)-5,6-dihydro-7H-pyrrolo[2,3-d]pyrimidin-7-yl]-3-methylpyrrolidin-1-yl}(3-methoxyazetidin-1-yl)methanone] | <0.018 nM |
| COC1CN(C(=O)N2CC[C@@](C)(N3CCc4c(-c5cnc(N)nc5)nc(N5CCOCC5)nc43)C2)C1 [Example 368, {(3R)-3-[4-(2-aminopyrimidin-5-yl)-2-(morpholin-4-yl)-5,6-dihydro-7H-pyrrolo[2,3-d]pyrimidin-7-yl]-3-methylpyrrolidin-1-yl}(3-methoxyazetidin-1-yl)methanone] | 0.127 nM |
| CC1(O)CN(C(=O)N2CC[C@](C)(N3CCc4c(-c5cnc(N)nc5)nc(N5CCOCC5)nc43)C2)C1 [Example 369, {(3S)-3-[4-(2-aminopyrimidin-5-yl)-2-(morpholin-4-yl)-5,6-dihydro-7H-pyrrolo[2,3-d]pyrimidin-7-yl]-3-methylpyrrolidin-1-yl}(3-hydroxy-3-methylazetidin-1-yl)methanone] | <0.018 nM |
